One data set deals with arrhythmias. Description: Antiarrhythmic action, aconitine infusion, rat, oral administration. Type of data set: in vivo, Sprague-Dawley rats. The conditions noted are these: for ED50: Rattus norvegicus, po, read-out: ED 50% (dose which prolongs the aconitine infusion duration by 50%). On the procedure: (§1) The substances were administered orally to Sprague-Dawley rats weighing 200-250 g. 45 minutes thereafter, the animals were anesthetized with 100 mg/kg of thiobutabarbital Na, administered intraperitoneally. Aconitine, as an arrhythmogenic substance, was infused intravenously into the jugular vein 60 minutes after administration of the substance (dosage rate: 0.005 mg per kg per min). In the case of untreated animals (N=52), arrhythmias appeared in the ECG after 2.74±0.07 minutes, the appearance of these arrhythmias being delayed by antiarrhythmic agents in a dose-dependent manner.
(§2) The dose which prolongs the duration of aconitine infusion by 50%, ie. the ED 50%, was determined from the linear relationship between log dose (mg/kg) of the test substances and the relative prolongation of aconitine infusion duration (Δ%).

Data set [1] in a line: Acute toxicity: dose at which first toxic symptoms (change in initial ECG, cyanosis or cramp) occur, rat, oral. Type of data set: in vivo, Sprague-Dawley rats. The conditions noted are these: Table 2, oral administration, geometric progression of doses (factor 2.154). On the procedure: as §1
(§3) Furthermore, the dose at which toxic symptoms (change in the initial ECG, cyanosis or cramp) occur was determined from the geometric progression of doses (factor 2.154) used in the experiments.

A short description of data set [2]: Therapeutic index: quotient of acute toxic dose to antiarrhythmic ED 50%. Also noted: species or system Sprague-Dawley rats. The conditions noted are these: in vivo; Table 2; rat, oral administration; measure of therapeutic index; read-out: Q (quotient of acute toxic dose to antiarrhythmic ED 50%). On the procedure:
as §1, §2, §3
The quotient of acute toxic dose to antiarrhythmic ED 50% was determined as a measure of the therapeutic index of the novel compounds.

Counter-ions that a name gives are not always drawn.

Take `CC(C)NCC(C)(O)CC1c2ccccc2CCc2ccccc21` (stereo not shown) [Example 1, N-[2-hydroxy-2-methyl-3-(10,11-dihydro-5H-dibenzocycloheptadienyl)-propyl]-N-isopropylamine hydrochloride]: the ED50 in the data set with arrhythmias came to 6.51 mg/kg.

For the molecule `CNCC(C)(O)CC1c2ccccc2CCc2ccccc21` (stereo not shown) [Example 3], the ED50 with arrhythmias was 3.11 mg/kg. Besides, in data set [1], the “Toxic dose (dose at which the first toxic symptoms are observed)” value (“Toxic dose” for short) was 100 mg/kg. Also, the selectivity ratio in data set [2] worked out at 32.

For the molecule `CC(O)(CNC(C)(C)C)CC1c2ccccc2CCc2ccccc21` (stereo not shown) [Example 4], the ED50 with arrhythmias came out at 6.47 mg/kg. Further, the “Toxic dose” value in data set [1] was 215 mg/kg. In addition, in data set [2], the selectivity ratio worked out at 33.

For `CCCNCC(C)(O)CC1c2ccccc2CCc2ccccc21` (stereo not shown) [Example 5], the ED50 with arrhythmias was 7.78 mg/kg.

In the case of `COCC(C)NCC(C)(O)CC1c2ccccc2CCc2ccccc21` (stereo not shown) [Example 6], the ED50 in the data set on arrhythmias stood at 6.83 mg/kg.

For the molecule `CC(O)(CC1c2ccccc2CCc2ccccc21)CN1CCC(O)(c2ccccc2)CC1` (stereo not shown) [Example 9], the ED50 in the data set with arrhythmias was found to be 2.57 mg/kg.

Consider `C=C[C@H]1C[N@@]2CC[C@H]1C[C@@H]2[C@@H](O)c1ccnc2ccc(OC)cc12` [Quinidine, quinidine, reference compound], for which, in the data set with arrhythmias (Table 2, rat, oral administration, 60 minutes before aconitine i.v. infusion 0.005 mg per kg per min), the “ED 50% (dose which prolongs the aconitine infusion duration by 50%)” value is given as 43.5 mg/kg. Besides, the “Toxic dose” value in data set [1] is on record as 464 mg/kg. Further, in data set [2], the selectivity ratio was found to be 11.

The record behind these values is patent US4670435A, “10,11-dihydro-5H-dibenzo[a,d]cycloheptadiene derivatives in a method for treating cardiac arrhythmia” (priority 1984, dated 1987).
